Data from patent US20240271226A1, “METHODS OF PATHOGEN IDENTIFICATION AND ANTIMICROBIAL SUSCEPTIBILITY TESTING” (priority 2020, published 2024).
Several values for one entry are separate records, joined by “and”; a condition that tells them apart may be missing. Equal entries are not always repeated. {FAM-O} = FAM dye attached through an O linker at the PNA N-terminus; {IABk} = Iowa Black quencher

Legend:
[1] = system: multi-drug resistant strain of E. coli (ATCC BAA 2471); conditions: cited from earlier work
uropathogenic E. coli = conditions: Baltimore, USA; cited from earlier work
[2] = system: E. coli ATCC 25922 16S rRNA; assay: Bulk PNA probe hybridization assay in urine, LIF detection; assay type: binding; conditions: ~10^9 CFU/mL E. coli ATCC 25922 spiked in urine; 2 min 95° C. lysis, 30 min 60° C. hybridization
Source text: (§1) PNA probes were designed to target specific regions in the 16S rRNA for organisms belonging to the Enterobacterales (EB) order, the E. coli and P. mirabilis species (EC and PM), and the eubacterial kingdom (UNI), based on previous work (52, 72) (Table 1). The EB, EC, and PM probes were labeled with a FAM fluorophore, whereas the universal probe was labeled with an Alexa546 fluorophore. For each PNA probe, a short complementary DNA quencher was designed labeled with an Iowa Black® dark quencher. All probes were synthesized by PNA Bio (Newbury Park, CA), and all DNA quencher strands were synthesized by Integrated DNA Technologies (San Diego, CA). Probes and quenchers were stored in a custom hybridization buffer consisting of 50 mM NaCl, 25 mM Tris-HCl pH 8.0, and 0.5% polyvinylpyrrolidone (PVP) at −20° C. PVP is included to reduce the likelihood of probes being adsorbed to or retained by the walls of the PDMS devices. Prior to each experiment, individual aliquots of PNA probes were first thawed at 60° C. for 10 min to ensure full dissolution of the PNA stock into the hybridization buffer. For both bulk-based and droplet experiments, 200 nM PNA probes were mixed with 600 nM of the corresponding quencher in the custom hybridization buffer, and this solution was either mixed in bulk or co-encapsulated into droplets at a 1:1 ratio along with bacteria-containing urine and/or MH suspensions. An appropriate dosage of antibiotics was included in this mixture if required for the experiment.
(§2) We first verified that the probes can specifically detect target bacteria spiked into urine. […] We spiked ˜10^9 CFU/mL (equivalent to 1 cell in a ˜1 pL droplet) of standard reference strains of E. coli ATCC 25922, P. mirabilis ATCC 12453, K. pneumoniae ATCC BAA 1705, and P. aeruginosa ATCC 27853 into a mixture of culture-negative (i.e., blank) urine samples and hybridization buffer with each PNA probe. Each sample was subjected to 2 min of thermal lysis at 95° C. and 30 min of hybridization at 60° C., and then detected at room temperature within a 10 μm-wide microfluidic detection channel by our 2-color LIF detector (FIG. 6).

[3] = Tm of designed PNA probes; assay type: physicochemical
Source text: as §1, with “An appropriate dosage of antibiotics was included in this mixture if required for the experiment.” left out

[4] = system: K. pneumoniae ATCC BAA 1705 16S rRNA; assay: Bulk PNA probe hybridization assay in urine, LIF detection; assay type: binding; conditions: ~10^9 CFU/mL K. pneumoniae ATCC BAA 1705 spiked in urine; 2 min 95° C. lysis, 30 min 60° C. hybridization
Source text: as §1, §2

[5] = system: P. aeruginosa ATCC 27853 16S rRNA; assay: as above; assay type: binding; conditions: ~10^9 CFU/mL P. aeruginosa ATCC 27853 spiked in urine; 2 min 95° C. lysis, 30 min 60° C. hybridization
Source text: as §1, §2

[6] = system: P. mirabilis ATCC 12453 16S rRNA; assay: as above; assay type: binding; conditions: ~10^9 CFU/mL P. mirabilis ATCC 12453 spiked in urine; 2 min 95° C. lysis, 30 min 60° C. hybridization
Source text: as §1, §2

[7] = system: multi-drug resistant E. coli ATCC BAA 2471; assay: Bulk pheno-molecular AST by 16S rRNA hybridization detection; assay type: cell-based; conditions: gentamicin 8 μg/mL, 20 μL bulk, 0-120 min at 37° C., EC PNA probe
Source text: (§3) We note that we can achieve preliminary pheno-molecular AST by directly detecting PNA-to-16S rRNA hybridization in the bulk format via the LIF detector, though only after relatively lengthy antibiotic exposure. […] We then determined the relative fluorescence intensity—the ratio between the fluorescence intensities of the gentamicin-dosed cells and the gentamicin-free cells—for both strains for each culture duration.

[8] = system: reference E. coli ATCC 25922; assay: as above; assay type: cell-based
Source text: as §3

E. coli cells = assay: In-droplet single-cell 16S rRNA AST in MH broth; assay type: cell-based
Source text: A custom MATLAB program was developed for analyzing the raw fluorescence intensity data acquired from the APD. From the fluorescence intensity time trace of each experimental run, the program looks for individual droplets by quantifying peak widths and peak heights. Once droplet position and fluorescence intensity were identified for all droplets in a sample, the intensities were plotted as a histogram with ˜150 bins. Resulting histograms typically follow a bimodal distribution, and in order to classify the respective subpopulations, the first droplet histogram peak (“empty droplets”) were fitted with a Gaussian curve. Based on the fitted curve, the mean intensity of the empty droplet population as well as the standard deviation were calculated. All droplets whose intensities were 5 standard deviations above the empty droplet mean intensity were counted as bacteria-containing “positive droplets.” Signal to background ratios were calculated by dividing the mean intensity of positive droplets by the mean intensity of empty droplets.
We first co-encapsulated the EC probe and E. coli cells, which were spiked into Mueller-Hinton broth (MH), into picoliter droplets. […]

reference E. coli = assay: In-droplet single-cell 16S rRNA AST in spiked urine; assay type: cell-based; conditions: gentamicin 8 μg/mL, urine with 2×MH broth, 37° C. for 30, 15, 10 or 5 min
[9] = system: multi-drug resistant E. coli; assay: as above; assay type: cell-based; conditions: gentamicin 8 μg/mL, urine with 2×MH broth, 37° C. for 30, 15, 10 or 5 min
Protocol: We next sought to minimize the culture/antibiotic exposure time for assessing antimicrobial susceptibility in urine. We separately digitized reference and multi-drug resistant E. coli-spiked urine samples, each along with 2×MH broth and EC PNA probes in droplets without and with gentamicin (bactericidal concentration of 8 μg/mL). Each gentamicin-free and gentamicin-dosed droplet group pair was then incubated at 37° C. for 30, 15, 10, or 5 min, followed by lysis, hybridization, and LIF detection (FIG. 13B). Longer bacterial culture result in higher production of 16S rRNA in gentamicin-free bacterial cells and therefore increased positive droplet frequencies. […] The effect of gentamicin on the two strains can be differentiated after as short as 10 min culture/antibiotic exposure, the minimum time at which there is no overlap between the error envelopes around the normalized positive droplet populations. […] As a result, we achieve assessment of antimicrobial susceptibility faster than the average replication time of an E. coli cell, a feat that ultimately paves the way for integrating molecular ID and AST to well under 30 min.
Finally, we investigated the utility of our single-cell 16S rRNA-based phenomolecular AST approach against 3 clinically important antibiotics. […]. […]

CC1(C)S[C@@H]2[C@H](NC(=O)[C@H](N)c3ccccc3)C(=O)N2[C@H]1C(=O)O [ampicillin]
reported resistance of the strain [1]: resistant

O=C(O)c1cn(C2CC2)c2cc(N3CCNCC3)c(F)cc2c1=O [ciprofloxacin]
reported resistance of the strain [1]: resistant
resistance rate (uropathogenic E. coli): ≤ 31%

EC probe: FAM-labeled PNA probe FAM-O-TCAATGAGCAAAGGT-KK targeting E. coli 16S rRNA, with Iowa Black DNA quencher IABk-AGTTACTCGT (chain 1: all peptide nucleic acid (PNA), 5' {FAM-O}; chain 2: DNA, 5' {IABk}, backbone and methylation of C not given here; PNA carries two C-terminal lysines)
probe fluorescence signal in the presence of target bacteria over blank urine background [2]: significantly higher signal
Tm [3]: 76.3 °C

UNI probe: Alexa546-labeled pan-bacteria PNA probe GCTGCCTCCCGTAGGA-K-Alexa546 targeting eubacterial 16S rRNA, with DNA quencher GGAGGGCATCCT-IABk (PNA, lysine-Alexa546, DNA quencher strand, chemistry not fully specified)
probe fluorescence signal in the presence of target bacteria over blank urine background [2]: successfully detects
probe fluorescence signal in the presence of target bacteria over blank urine background [4]: successfully detects
probe fluorescence signal in the presence of target bacteria over blank urine background [5]: successfully detects
probe fluorescence signal in the presence of target bacteria over blank urine background [6]: successfully detects
Tm [3]: 80.5 °C

gentamicin
relative fluorescence intensity (gentamicin-dosed cells / gentamicin-free cells) [7]: ~1
culture/antibiotic exposure needed to see or differentiate the effect on susceptible vs resistant E. coli ([8]; bulk format, vs multi-drug resistant E. coli BAA 2471): > 90 min and 90 min
relative fluorescence intensity (gentamicin-dosed cells / gentamicin-free cells) ([8]; gentamicin 8 μg/mL, 20 μL bulk, 0-120 min at 37° C., EC PNA probe): significantly lower relative fluorescence intensities
normalized positive droplet population versus antibiotic concentration (E. coli cells; E. coli in MH broth, droplets): decreases as the concentration of gentamicin increases
frequency of positive droplets (E. coli cells; gentamicin 128 μg/mL, 30 min culture/antibiotic exposure, MH broth, 4×10^7 CFU/mL E. coli, no-antibiotic control 7.70%): 3.12%
normalized positive droplet population (reference E. coli): decreasing normalized positive droplet population over increasing culture times
normalized positive droplet population [9]: comparatively higher and relatively unchanging normalized positive droplet population
reported resistance of the strain [1]: resistant
